Experimental findings from PMC10892536, “Establishment and Validation of a Transdermal Drug Delivery System for the Anti-Depressant Drug Citalopram Hydrobromide” (Molecules, 2024) are described below.

The series in a line: In vivo pharmacokinetic study in rabbits. Conditions: oral gavage, n = 6. As to the method: CTH in the samples was quantified using a CoM 6000 HPLC system (CoMetro Technology, South Plainfield, NJ, USA) with a Comatex C18-AB column (250 × 4.6 mm, 5 μm; 115 Corp, Plainfield, NJ, USA) at 238 nm. The mobile phase was 0.1 mol/L acetonitrile, 0.1 mol/L ammonium acetate, and 0.01 mol/L heptane sodium sulfonate at a ratio of 5:5:1 (v/v). The flow rate was 1.0 mL/min, and the column temperature was 25 °C. All sample solutions were degassed and the injection volume was maintained at 20 μL [44, 53]. The particular application detail on the CoM 6000 HPLC system referred to a previous introduction in our laboratory.
The rabbits were assigned to one of the following three groups: A, B, or C. The abdominal hair of the rabbits in groups B and C was shaved off with an electric hair remover, and after cleaning the skin with normal saline, the optimized TDDS was applied to the abdomens of […] in group B, and blank patches were applied to the abdomens of rabbits in group C. Group A was administered CTH by oral gavage. The oral gavage procedure involved fixing the rabbits with an animal fixator and placing a special mouth expander with a rope attached to their mouth. An elastic rubber catheter was inserted through a small round hole in the mouth expander and pushed into the esophagus along the posterior pharyngeal wall. A solution consistent with the TDDS concentration was added. After gastric perfusion, the catheter and mouth opener were removed. Next, 1 mL aliquots of blood were collected from the marginal auricular vein of the experimental animals at different time intervals (1, 2, 4, 7, 12, and 24 h), placed in heparinized tubes, and centrifuged at 1500× g for 10 min. The resulting plasma supernatant was stored at −70 °C until further analysis. HPLC analyses were carried out by transferring 200 μL of the supernatant to a 1.5 mL polyethylene centrifuge tube. The tubes were then mixed with 300 μL acetonitrile, centrifuged at 2500× g for 10 min, and filtered through a 0.22 μm membrane.
The pharmacokinetic parameters of the conventional oral and sustained-release transdermal preparations were analyzed, including the maximum plasma concentration of the drug (Cmax), the time to reach the Cmax (Tmax), the mean residence time (MRT), and the area under the plasma concentration–time curve from time 0 to t (AUC(0-t)). Two-tailed Student’s t-tests were performed for the Cmax and AUC(0-t) analyses, and a non-parametric test was performed for the Tmax analysis. The AUC(0-t) was calculated using the trapezoidal rule.

Structures can show the parent of a compound that is named as a salt.

With `CN(C)CCCC1(c2ccc(F)cc2)OCc2cc(C#N)ccc21` (stereo not shown) [CTH, citalopram hydrobromide], the “AUC(0-t)” value was determined as 8460.37 ± 996.43 ng/h/mL. In addition, where the note is “rabbit, plasma”, the maximum concentration (Cmax) came out at 4900 ± 396 ng/mL, the mean residence time MRT was 2.4 ± 0.25 h and the Tmax worked out at 1 h.

The Cmax is the maximum level reached in the sampled fluid or tissue. By MRT is commonly meant a mean duration of stay, worked out from the concentration-time curve. The term Tmax denotes the time at which the peak concentration occurs.
